Results on one compound are retold here after US9738631B2, “Compositions and methods for the treatment of neurological disorders” (CELLIXBIO PRIVATE LIMITED, priority 2012, dated 2017).

SMILES strings stand for the structures.

Series [1] in a line: Pharmacokinetic profiles over 24 hours in normal and diabetic rats (toxicokinetic study). It counts as in vivo, Sprague Dawely rats. Conditions: for reduction of AUC0-24 by diabetes / reduction of AUC0-inf by diabetes / reduction of Cmax by diabetes: streptozotocin-diabetic rats. The procedure:
Toxicokinetic Effects of Carbamazepine and Formula (1-2) in Diabetic Rats […] Animals were divided into […], normal and diabetic sets; each set was divided into control and three-treated groups where rats received orally carbamazepine and formula (1-2) in dose levels of 100 and 200 mg/kg once daily for 28 days. The pharmacokinetic profiles were carried out over a period of 24 hours. The liver functions were evaluated by the determination of albumin, ALT and AST plasma levels and kidney functions were determined by creatinine and urea. Histopathology of rat's livers and kidneys were also investigated. Carbamazepine plasma levels were determined by a validated HPLC method.

Series [2] concerns adult male Sprague Dawely rats. The series can be described thus: Liver and kidney functions (albumin, ALT, AST, creatinine, urea) after 28 days oral dosing. Type of series: in vivo. The procedure: Toxicokinetic Effects of Carbamazepine and Formula (1-2) in Diabetic Rats
Diabetes was induced in adult male Sprague Dawely rats by streptozotocin (60 mg/kg, ip). Animals were divided into […], normal and diabetic sets; each set was divided into control and three-treated groups where rats received orally carbamazepine and formula (1-2) in dose levels of 100 and 200 mg/kg once daily for 28 days. The pharmacokinetic profiles were carried out over a period of 24 hours. The liver functions were evaluated by the determination of albumin, ALT and AST plasma levels and kidney functions were determined by creatinine and urea. Histopathology of rat's livers and kidneys were also investigated. Carbamazepine plasma levels were determined by a validated HPLC method.

The mark [3] stands for this setting: treated groups, 100 and 200 mg/kg orally once daily for 28 days, P<0.05.

As to `NC(=O)N1c2ccccc2C=Cc2ccccc21` [carbamazepine, Carbamazepine], in series [1] (carbamazepine 100 mg/kg orally), the “reduction of AUC0-24 by diabetes” value turned out to be 13.6%, the “reduction of AUC0-inf by diabetes” value was 22.8% and the “reduction of Cmax by diabetes” value worked out at 6.8%. Further, in series [1] (carbamazepine 200 mg/kg orally), the “reduction of AUC0-24 by diabetes” value amounted to 12.2%, the “reduction of AUC0-inf by diabetes” value is given as 32.8% and the “reduction of Cmax by diabetes” value worked out at 20.3%. In addition, the “effect of diabetes on the rate and extent of absorption” value in series [1] (diabetic rats, P<0.05) is “significantly altered”. The “elevation of liver enzymes, urea and creatinine in diabetic rats compared with normal rats” value in series [2] (diabetic rats) is reported as “more pronounced in diabetic rats”. In addition, in series [2] (setting [3]), the Liver enzymes levels result is recorded as “significantly elevated”, the creatinine levels entry is on record as “significantly elevated” and the urea levels entry was “significantly elevated”.
